The numbers were not newly measured in publication PMC10488193, “Evaluation of the Chemical Stability, Membrane Permeability and Antiproliferative Activity of Cyclic Diarylheptanoids from European Hornbeam (Carpinus betulus L.)” (International Journal of Molecular Sciences, 2023), which cites them from elsewhere.

The subject of the data set is A549 human lung adenocarcinoma cells. Details: method as in PMID 28520428, PMID 28941682. The following applies: cited from earlier work.

`O=C1CCc2ccc(O)c(c2)-c2cc(ccc2O)C[C@H](O)[C@H](O)[C@H]1O` [Compound 2, carpinontriol B]: the IC50 is more than 100 µM.
